For assay [1], the system named is tryptophan hydroxylase 1 (Tph1) mRNA expression in BON cells.
Description: Cells were plated at 1×10^5 per ml and grown to 90% confluency in 12-well culture plates. Culture wells were then treated (in triplicate) with tryptamine in media for 6 hours, fixed in RNA Protect (Qiagen) and subjected to qRT-PCR.
The subject of assay [2] is proximal colon, stripped of external muscle layers. Briefly: Ussing chamber short circuit current of proximal colon from GF, HM and CR mice. Particulars: for EC50: Mus musculus; for EC50 / Emax (Δ Isc): serosal; for cumulative concentration response curves (intestinal secretion): serosal application, GF vs HM and CR mice. On the procedure:
Colonic mucosal transepithelial resistance (TER) was measured at the beginning of each experiment and FITC Dextran (4 k Da) flux was determined from the linear fit of samples obtained from the serosal side every 5 minutes for 30 minutes after adding 1 mg/mL FITC-Dextran to the mucosal side. Change in short circuit current (Δ lsc) was determined in response to electrical field stimulation (EFS) using foil electrodes on the submucosal side (30-150V, 100 0.5 ms pulses at 1-2 Hz). There was no significant difference in Δ lsc between GF and HM in response to EFS at 1 Hz (138±42 vs 202±71 μA/cm^2; n=4; p>0.05) or 2 Hz (180±28 vs 252±70 μA/cm^2; n=4; p>0.05).
Acetylcholine (Ach) in increasing concentrations (0.01-300 μM) on the serosal side was used as a control for tissue reactivity. Cumulative concentration response curves induced by serosal ACh were not different between GF and HM as evident by similar Emax (261±38 vs 299±27 μA/cm^2; n=5; p>0.05) and EC50 (20.6±3 vs 22.7±9 μM) values.

Assay [3] addresses T1, CLOSPO_02083 (Clostridium sporogenes, UniProt J7SZ64).
T1 construct: His6 (N); made in house; host or cells: E. coli BL21 (DE3)
Type of assay: biochemical. To be noted: for decarboxylation of Phe by CLOSPO_02083: up to 90 mM substrate, 60 minutes. On the procedure: (§1) Reaction mixtures contained 50 mM sodium phosphate pH 6.5, 300 mM NaCl, and […] PLP. Reactions were initiated by the addition of enzyme and terminated by quenching aliquots with 1 volume of MeOH and performed at 37° C. All substrates purchased from Sigma-Aldrich.
(§2) Under the same buffer and reaction conditions, the kinetic parameters for the decarboxylation of phenylalanine by RUMGNA_01526 were determined by adding RUMGNA_01526 to a final concentration of 500 nM, and the concentration of phenylalanine varied from 5-80 mM. Reactions proceeded for 10 minutes. The kinetic parameters for the decarboxylation of tryptophan by CLOSPO_02083 were determined by adding CLOSPO_02083 to a final concentration of 100 nM, and the concentration of tryptophan varied from 0.15-24.5 mM. Reactions proceeded for 6 minutes.
To gain insight into the substrate selectivity of CLOSPO_02083, the basic kinetic parameters were measured for CLOSPO_02083-catalyzed decarboxylation of the aromatic amino acids Trp, Tyr, and phenylalanine (Phe). To determine kcat and Km for CLOSPO_02083, the concentration of the amino acid substrate was varied under initial velocity conditions (FIGS. 3C and 4A).

In assay [4] the target is T2, RUMGNA_01526 (Mediterraneibacter gnavus, UniProt A7B1V0).
T2 construct: His6 (N); made in house; host or cells: E. coli BL21 (DE3)
Type of assay: biochemical, Ruminococcus gnavus. On the procedure: as §1
To determine the kinetic parameters for the decarboxylation of tryptophan by RUMGNA 01526, RUMGNA_01526 was added to a final concentration of 10 nM, and kcat and Km were determined by varying the concentration of tryptophan from 0.15-10 mM. Reactions proceeded for 7 minutes and were quenched as described. 100 μL of the quenched reaction was analyzed by HPLC. Peak areas were integrated and compared with a standard curve to calculate product concentration. Triplicate measurements were made from a single batch of purified enzyme. Initial velocity data were fit to the Michaelis-Menten equation by using the program GraphPad. The allosteric sigmoidal model was used by fitting to the Hill equation: y=vmax*x^h/(K0.5^h+x^h), where h is the Hill coefficient and K0.5 is the apparent concentration at half maximal velocity.
as §2
Basic kinetic parameters were measured for the decarboxylation of Trp, Tyr, and Phe by RUMGNA_01526.

A further assay deals with 5HTR4. To be noted: for response (Δ Isc) to mucosal application / response (Δ Isc) to serosal application: 5HTR4 KO mice. On the procedure: The response to […] (5HT; 0.003-300 μM) on the mucosal or serosal side and tryptamine (0.003-3000 μM) on the mucosal or serosal side was determined in segments of proximal colon, stripped of external muscle layers, from both 5HTR4 KO and WT mice.

The subject of assay [5] is proximal-mid colon, stripped of external muscle layers. Briefly: Ion secretion from the murine colon, Ussing chamber short circuit current. Further details: species or system SvEv129 mice. To be noted: 3 mM tryptamine, mucosal side. How it is done:
A segment of proximal-mid colon, stripped of external muscle layers from each of three SvEv129 mice was mounted in 0.3 cm^2 area, 4 mL Ussing chamber. […] (FIG. 6).
The function of tryptamine in the context of microbe-host signaling in the gut was examined. An experiment to test whether tryptamine is capable of inducing ion secretion by intestinal epithelial cells was performed. Using an Ussing chamber, a segment of proximal-mid murine colon mucosa was exposed to two concentrations of tryptamine and the change of short circuit current was measured.

Assay [6] relates to full-thickness colonic segments. As to the kind of experiment: Open organ bath intraluminal pressure of mouse colonic segments ex vivo. How it is done: Preparations of full-thickness colonic segments (˜1.5 cm) were allowed to equilibrate in 37° C. Kreb's-jacketed organ baths with their distal ends opening to a pressure transducer and maintained under basal pressure of 5-cm column of vehicle (RL). The proximal end was closed during pressure recordings but opened to allow luminal infusion of vehicle or tryptamine in solution (100 μM, 1 mM and 3 mM; 10 minutes per treatment; n=5-7 mice).

In assay [7] the test system is proximal colon, stripped of external muscle layers. Briefly: Ussing chamber short circuit current of proximal colon from GF, HM and CR mice. To be noted: HM or CR mice.
The target in assay [8] is T2, RUMGNA_01526. Briefly: Inhibition of RUMGNA_01526 tryptamine production by (S)-α-FMT, progress curves. Type of assay: biochemical, Ruminococcus gnavus. To be noted: RUMGNA_01526, 2.5 mM Trp. The source says: (§3) Progress curves were fitted to the equation [P]=(vi/kobs)(1−exp(−kObst)), where P is the product formed at time t, vi is the initial velocity, and kobs is the apparent first-order rate constant for enzyme inactivation. The kobs were plotted versus inhibitor concentration and fitted to the equation kobs=kinact[I]/(Kapp+[I]), where Kapp is the apparent dissociation constant of the reversible enzyme-inhibitor complex, and kinact is the first-order rate constant for apparent irreversible conversion of the enzyme-inhibitor complex to covalently bound complex. Ki values were calculated using the equation Ki=Kapp/(1+[tryptophan])/Km,Trp) using experimentally determined Km values for tryptophan (Schirmer et al., Proc. Natl. Acad. Sci. USA, 103(11):4234-4239 (2006)).
(§4) The production of tryptamine was measured by HPLC in the presence of various concentrations of inhibitor over 30 minutes and progress curves of the reaction were analyzed to assess the kinetics of inhibition.

For assay [9], the target named is T1, CLOSPO_02083. Briefly: Inhibition of CLOSPO_02083 tryptamine production by (S)-α-FMT, progress curves. Type of assay: biochemical. To be noted: CLOSPO_02083, 10 mM Trp.
From the text: as §3, §4

[10] abbreviates: 1 μM enzyme, 2.28 mM tyrosine, 90 minutes.
Where [11] appears, read: any of the tryptamine concentrations.
Where [12] appears, read: at the highest concentration of Tyr tested.

The structures appear in SMILES notation. “Also recorded” adds a separate entry of the source. Like-named read-outs stand apart in the source and are kept apart here. A value given as a limit tells only on which side of the number the result lay.

T1 sequence (J7SZ64 whole entry): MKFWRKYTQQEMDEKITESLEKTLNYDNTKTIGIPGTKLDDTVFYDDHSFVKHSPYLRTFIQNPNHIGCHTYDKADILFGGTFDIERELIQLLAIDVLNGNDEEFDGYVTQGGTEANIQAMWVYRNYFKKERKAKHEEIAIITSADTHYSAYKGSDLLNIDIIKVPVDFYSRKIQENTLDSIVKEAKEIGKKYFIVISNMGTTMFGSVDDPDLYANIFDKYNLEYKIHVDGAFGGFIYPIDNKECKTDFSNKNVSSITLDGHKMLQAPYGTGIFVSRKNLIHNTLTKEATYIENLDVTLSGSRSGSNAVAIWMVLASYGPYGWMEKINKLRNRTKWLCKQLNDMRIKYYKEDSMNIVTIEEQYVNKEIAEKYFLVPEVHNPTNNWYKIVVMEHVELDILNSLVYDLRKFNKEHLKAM

Take `CC(=O)O` [acetate]: the Tph1 expression induction in [1] (acetate 10 mM) was determined as 2.5 fold; in assay [1] (acetate 30 mM), 3.2 fold; in assay [1] (acetate 50 mM), 2.2 fold.
What is called EC50 is the concentration needed to bring the measured effect to its halfway point. The low end stands for higher potency in that assay, the high end for lower potency in that assay. Consider `CC(=O)OCC[N+](C)(C)C` [ACh, Acetylcholine], for which the EC50 was 20.6 ± 3 µM in [2] (GF mice) and 22.7 ± 9 µM in assay [2] (HM mice). The “Emax (Δ Isc)” value in assay [2] (GF mice) came to 261±38 μA/cm^2; in assay [2] (HM mice), 299±27 μA/cm^2.
As for `CCCC(=O)O` [Butyrate, butyrate], the “Tph1 mRNA induction above controls” value in [1] (butyrate 500 μM) is recorded as 3.5 fold; in [1] (butyrate 1 mM), 2.5 fold.
For `N[C@@H](Cc1ccc(O)cc1)C(=O)O` [tyrosine], on CLOSPO_02083 [3] (setting [10]), the “decarboxylation of tyrosine by CLOSPO_02083” value is “observed”. Besides, the “decarboxylation of tyrosine by RUMGNA_01526” value at RUMGNA_01526 [4] (setting [10]) was “observed”.
In the case of `NCCc1c[nH]c2ccccc12` [tryptamine], the “cumulative concentration response curves (intestinal secretion)” value in assay [2] was “significantly higher in GF compared to HM and CR”. Further, in the assay with 5HTR4, the “response (Δ Isc) to mucosal application” value is “no response” and the “response (Δ Isc) to serosal application” value is given as “no response”. The “Δ Isc response” value with 5HTR4 (mucosal application of 3000 μM, 5HTR4 WT mice, maximum response not reached) was 99.5±30.7. Also, the “Emax (Δ Isc)” value in the assay on 5HTR4 (serosal application, 5HTR4 WT mice) came out at 110±17 μA/cm2. Besides, the “change in short circuit current (ion secretion)” value in [5] is “significant change in short circuit current; also recorded: significant increase”. Also, in assay [6] (any of the luminal tryptamine treatments), the “contractile duration, measured at half amplitude, vs vehicle” value is on record as “not significantly different”. In addition, in [6] (setting [11]), the “contractile magnitude, area under the curve, vs vehicle” value is “not significantly different” and the “mean contractile amplitude vs vehicle” value is “not significantly different”. Further, the “contractile frequency vs vehicle controls” value in [6] (luminal 100 μM, 1 mM and 3 mM) was “not significantly different”. The molecule further displayed a contractile frequency in [6] (luminal 1 mM tryptamine, vehicle control 4.1±0.6, P=0.15) of 5.9±0.8. Further, the “alteration of Tph1 mRNA levels” value in [1] (1 μM, 5 μM, 10 μM and 20 μM, 6 hours) is “None of the tested tryptamine concentrations (1 μM, 5 μM, 10 μM, and 20 μM) reproducibly showed a significant alteration”. Besides, in assay [7], the “biological effect in the presence of 5HT3 receptor antagonist” value was “did not block”, the “biological effect in the presence of 5HT4 receptor antagonist” value is reported as “blocked the biological effect”, the “maximal response (Emax) in the presence of 5HT3 receptor antagonist” value is recorded as “is not blocked” and the “maximal response (Emax) in the presence of 5HT4 receptor antagonist” value is reported as “can be blocked”.
For orientation: Ki means a dissociation constant, usually derived from enzyme kinetics or from competition with a known ligand. The low end stands for tighter binding, the high end for weaker binding. A word on the kinact: it is the rate constant of inactivation at saturating inhibitor. Turning to `N[C@@](CF)(Cc1c[nH]c2ccccc12)C(=O)O` [(S)-α-FMT, (S)-α-fluoromethyltryptophan], at RUMGNA_01526 [8], the Ki worked out at 178 µM and the maximal inactivation rate constant (kinact) was 0.02 s⁻¹. For the same molecule, at CLOSPO_02083 [9], the Ki stood at 0.2 µM and the inactivation rate constant (kinact) was 0.00167 s⁻¹.
For the molecule `N[C@@H](Cc1ccccc1)C(=O)O` [Phe, phenylalanine], the “decarboxylation of Phe by CLOSPO_02083” value is recorded as “undetectable” on CLOSPO_02083 [3] (1 μM enzyme) and “not observed” on CLOSPO_02083 [3] (1 μM enzyme, listed as phenylalanine).
The term kcat denotes the maximal rate divided by the concentration of active sites. As a reminder, the Km is the substrate concentration at which the rate is half of its maximum. With `N[C@@H](Cc1c[nH]c2ccccc12)C(=O)O` [Trp, tryptophan], the “efficiency of decarboxylating Trp relative to Tyr” value at CLOSPO_02083 [3] (setting [12]) was 600 fold; at RUMGNA_01526 [4] (setting [12]), 1000 fold. Moreover, the turnover number (kcat) turned out to be 20 s⁻¹ at CLOSPO_02083 [3] (decarboxylation of Trp by CLOSPO_02083) and 73.33 s⁻¹ at RUMGNA_01526 [4] (decarboxylation of Trp by RUMGNA_01526). Moreover, the Km on CLOSPO_02083 [3] (decarboxylation of Trp by CLOSPO_02083, 100 nM enzyme, 37° C.) is 2800 µM; at RUMGNA_01526 [4] (decarboxylation of Trp by RUMGNA_01526, 10 nM enzyme, 37° C.) it was 1100 ± 100 µM. Further, the “Km for Trp relative to Phe (lower)” value on RUMGNA_01526 [4] (RUMGNA_01526) is recorded as 70 fold. Also, at RUMGNA_01526 [4] (RUMGNA_01526), the “catalytic efficiency for Trp relative to Phe” value was over 1000 fold. Further, the “kcat for Trp relative to Phe (higher)” value at RUMGNA_01526 [4] (RUMGNA_01526) is 19 fold.
On to `NCCc1c[nH]c2ccc(O)cc12` [serotonin, 5-hydroxy tryptamine, reference compound], for which the “cumulative concentration response curves (intestinal secretion)” value in [2] was “significantly higher in GF compared to HM and CR”. In the assay on 5HTR4, the “response (Δ Isc) to mucosal application” value is given as “no response” and the “response (Δ Isc) to serosal application” value is listed as “decreased responsiveness”. In addition, in [7], the “biological effect in the presence of 5HT3 receptor antagonist” value was “blocked the biological effect”, the “biological effect in the presence of 5HT4 receptor antagonist” value is “blocked the biological effect”, the “maximal response (Emax) in the presence of 5HT3 receptor antagonist” value is “can be blocked” and the “maximal response (Emax) in the presence of 5HT4 receptor antagonist” value was “can be blocked”.

The record behind these values is patent US12257235B2, “Methods and materials for using ruminococcus gnavus or clostridium sporogenes to treat gastrointestinal disorders” (Mayo Foundation for Medical Education and Research, priority 2015, dated 2025).
